This is an account of results in patent US20240246968A1, “SMALL MOLECULE INHIBITORS OF KRAS G12C MUTANT” (Merck Sharp & Dohme LLC, priority 2021, published 2024).

For assay [1], the system named is MIA PaCa-2 cells. The experiment in a line: Growth inhibition activity on KRAS-G12C mutant cell line (MIA PaCa-2), CellTiter-Glo 3D. It is filed as cell-based, human. As to conditions: MIA PaCa-2, 3-day culture with compound. The method in brief:
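Cells in RPMI1640 with 10% FBS were seeded in U-bottom plates and cultured 1 day at 37 °C, 5% CO2, then exposed to compound (0.2% DMSO final) for 3 more days. Viability read by CellTiter-Glo 3D luminescence; IC50 from growth inhibition relative to untreated wells.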

The target in assay [2] is T1, interaction between recombinant K-Ras4B G12C mutant protein and cRAF RAS-binding domain (cRAF-RBD) (Homo sapiens, UniProt P01116, G12C).
T1 construct: made in house; host or cells: E. coli
The experiment in a line: Inhibitory activity on interaction between KRAS G12C and cRAF (Alpha technology). It is filed as biochemical. As to conditions: GMPPNP-bound KRAS G12C incubated with compound at 25° C. for 1 hour, then cRAF-RBD; Alpha signal. Summed up:
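GMPPNP-loaded His-tagged KRAS G12C (aa 1-169, E. coli) preincubated with compound 1 h at 25° C in Tris pH 7.5, 100 mM NaCl, 1 mM MgCl2, TCEP, 0.1% Tween 20; cRAF-RBD (aa 50-132) added, 1.5 h RT, Alpha signal read. DMSO = 0%, GDP-bound KRAS = 100% inhibition; IC50 from dose titration fit.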

The target of assay [3] is Gppcp-bound recombinant K-Ras4B G12C mutant protein (amino acids 1-169, C51S/C80L/C118S) (Homo sapiens, UniProt P01116, C118S/C51S/C80L/G12C). The experiment in a line: KRASG12C binding assay (LC-MS, compound binding rate). As to conditions: test compound final concentration 0.5 μM, 25° C., 1 hour. Summed up: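 Gppcp-bound K-Ras4B G12C (1-169; C51S/C80L/C118S), 50 nM in TBS with 0.1 mM TCEP, 0.25 mM MgCl2, 50 μM Gppcp, exposed to compound at 0.5 μM final for 1 h at 25 °C. Quenched with formic acid and analysed by intact-protein ESI LC-MS. Binding rate is the mono-adduct signal over total KRAS signal; graded A (≥80%) to E (<20%).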

As to `COc1cc2c(nc(C)n2C)c(F)c1-c1cccn2c(C(=O)c3cc(F)c(NC(=O)/C=C/CN[C@H]4CC[C@H](OC)CC4)c(F)c3)ccc12` [Example 44], the IC50 worked out at 23 nM in assay [1] (Homo sapiens, MIA PaCa-2, 72 h) and 22 nM in assay [2]. In addition, the binding rate entry in assay [3] is “A (A binding rate of 80% or more is rated “A”)”.
Consider `C/C=C/c1cc(C(=O)c2cc(F)c(NC(=O)/C=C/CN[C@H]3CC[C@H](OC)CC3)c(F)c2)n2cccc(-c3c(C)cc4c(nc(C)n4C)c3Cl)c12` [Example 96, (E)-N-(4-(8-(4-chloro-1,2,6-trimethyl-1H-benzo[d]imidazol-5-yl)-1-((E)-prop-1-en-1-yl)indolizine-3-carbonyl)-2,6-difluorophenyl)-4-(((1r,4r)-4-methoxycyclohexyl)amino)but-2-enamide], for which the IC50 in assay [1] (Homo sapiens, MIA PaCa-2, 72 h) was 130 nM; in assay [2], 36 nM. Besides, the binding rate entry in assay [3] is “A (A binding rate of 80% or more is rated “A”)”.
Consider `CCc1cc2c(nc(C)n2C)c(Cl)c1-c1cccn2c(C(=O)c3cc(F)c(NC(=O)/C=C/CN[C@H]4CC[C@H](OC)CC4)c(F)c3)ccc12` (single isomer, unassigned) [Example 22-1, (E)-N-(4-(8-(4-chloro-6-ethyl-1,2-dimethyl-1H-benzo[d]imidazol-5-yl)indolizine-3-carbonyl)-2,6-difluorophenyl)-4-(((1r,4r)-4-methoxycyclohexyl)amino)but-2-enamide], for which the IC50 in assay [1] came to 72 nM; in assay [2] it was 23 nM. In assay [3], the binding rate entry was “A (A binding rate of 80% or more is rated “A”)”.
For the molecule `Cc1nc2cc(-c3cccn4c(C(=O)c5cc(F)c(NC(=O)/C=C/CN[C@@H]6CCOC6)c(F)c5)ccc34)c(C(F)(F)F)cc2n1C` [Example 91], the half-maximal inhibitory concentration (IC50) is 100 nM in assay [1] (Homo sapiens, MIA PaCa-2, 72 h) and 75 nM in assay [2]. The binding rate result in assay [3] is recorded as “A (A binding rate of 80% or more is rated “A”)”.
As for `COc1c(-c2cccn3c(C(=O)c4cc(F)c(NC(=O)/C=C/CNC5(C)CC5)c(F)c4)cnc23)c(C(F)(F)F)cc2c1nc(C)n2C` (single isomer, unassigned) [Example 105-1, (E)-N-(2,6-difluoro-4-(8-(4-methoxy-1,2-dimethyl-6-(trifluoromethyl)-1H-benzo[d]imidazol-5-yl)imidazo[1,2-a]pyridine-3-carbonyl)phenyl)-4-((1-methylcyclopropyl)amino)but-2-enamide], the IC50 in assay [1] is 23.1 nM; in assay [2], 29.8 nM. The binding rate result in assay [3] is “A (A binding rate of 80% or more is rated “A”)”.
For `Cc1nc2c(Cl)c(-c3cccn4c(C(=O)c5cc(F)c(NC(=O)/C=C/CNC6CCOCC6)c(F)c5)ccc34)c(C(F)(F)F)cc2n1C` (single isomer, unassigned) [Example 57-2, (E)-N-(4-(8-(4-chloro-1,2-dimethyl-6-(trifluoromethyl)-1H-benzo[d]imidazol-5-yl)indolizine-3-carbonyl)-2,6-difluorophenyl)-4-((tetrahydro-2H-pyran-4-yl)amino)but-2-enamide] the same measures were 1100 nM, 790 nM and “A (A binding rate of 80% or more is rated “A”)”.
For `CO[C@H](C)c1nc2c(Cl)c(-c3cccn4c(C(=O)c5cc(F)c(NC(=O)/C=C/CN[C@H]6CC[C@H](OC)CC6)c(F)c5)ccc34)c(C)cc2n1C` (single isomer, unassigned) [Example 48] the same measures were 230 nM, 110 nM and “A (A binding rate of 80% or more is rated “A”)”.
For `COc1c(-c2cccn3c(C(=O)c4cc(F)c(NC(=O)/C=C/CNC5CCOCC5)c(F)c4)ccc23)c(C(F)(F)F)cc2c1nc(C)n2C` (single isomer, unassigned) [Example 61-2, (E)-N-(2,6-difluoro-4-(8-(4-methoxy-1,2-dimethyl-6-(trifluoromethyl)-1H-benzo[d]imidazol-5-yl)indolizine-3-carbonyl)phenyl)-4-((tetrahydro-2H-pyran-4-yl)amino)but-2-enamide] the same measures were 10 nM, 28 nM and “A (A binding rate of 80% or more is rated “A”)”.
In the case of `CO[C@H]1CC[C@H](NC/C=C/C(=O)Nc2c(F)cc(C(=O)c3ccc4c(-c5c(C)cc6c(nc(COC(=O)/C=C/CN[C@H]7CC[C@H](OC)CC7)n6C)c5Cl)cccn34)cc2F)CC1` [Example 59, (4-chloro-5-(3-(3,5-difluoro-4-((E)-4-(((1r,4r)-4-methoxycyclohexyl)amino)but-2-enamido)benzoyl)indolizin-8-yl)-1,6-dimethyl-1H-benzo[d]imidazol-2-yl)methyl (E)-4-(((1r,4r)-4-methoxycyclohexyl)amino)but-2-enoate], the IC50 in assay [1] (Homo sapiens, MIA PaCa-2, 72 h) turned out to be 230 nM; in assay [2] it was 34 nM. In assay [3], the binding rate entry is “A (A binding rate of 80% or more is rated “A”)”.
Consider `CO[C@H]1CC[C@H](NC/C=C/C(=O)Nc2c(F)cc(C(=O)c3ccc4c(-c5c(C(C)C)cc6c(nc(C)n6C)c5Cl)cccn34)cc2F)CC1` (single isomer, unassigned) [Example 71-2, (E)-N-(4-(8-(4-chloro-6-isopropyl-1,2-dimethyl-1H-benzo[d]imidazol-5-yl)indolizine-3-carbonyl)-2,6-difluorophenyl)-4-(((1r,4r)-4-methoxycyclohexyl)amino)but-2-enamide], for which the figures for the IC50 in assay [1] and in assay [2] were 570 nM and 220 nM, respectively. Further, the binding rate result in assay [3] is on record as “A (A binding rate of 80% or more is rated “A”)”.
Take `COCCn1c(C)nc2c(F)c(-c3cccn4c(C(=O)c5cc(F)c(NC(=O)/C=C/CNC6(C)CC6)c(F)c5)ccc34)c(OC)cc21` [Example 113, (E)-N-(2,6-difluoro-4-(8-(4-fluoro-6-methoxy-1-(2-methoxyethyl)-2-methyl-1H-benzo[d]imidazol-5-yl)indolizine-3-carbonyl)phenyl)-4-((1-methylcyclopropyl)amino)but-2-enamide]: the IC50 was 55.9 nM in assay [1] (Homo sapiens, MIA PaCa-2, 72 h) and 44.9 nM in assay [2]. Also, the binding rate entry in assay [3] is given as “A (A binding rate of 80% or more is rated “A”)”.
For `CO[C@H]1CC[C@H](NC/C=C/C(=O)Nc2c(F)cc(C(=O)c3ccc4c(-c5c(C(F)(F)F)cc6c(nc(CF)n6C)c5Cl)cccn34)cc2F)CC1` [Example 68] the same measures were 67 nM, 77 nM and “A (A binding rate of 80% or more is rated “A”)”.
As for `CO[C@H]1CC[C@H](NC/C=C/C(=O)Nc2c(F)cc(C(=O)c3ccc4c(-c5cc6ncn(C)c6cc5O)cccn34)cc2F)CC1` [Example 23, (E)-N-(2,6-difluoro-4-(8-(6-hydroxy-1-methyl-1H-benzo[d]imidazol-5-yl)indolizine-3-carbonyl)phenyl)-4-(((1r,4r)-4-methoxycyclohexyl)amino)but-2-enamide], the IC50 came out at 520 nM in assay [1] (Homo sapiens, MIA PaCa-2, 72 h) and 23 nM in assay [2]. The binding rate entry in assay [3] is reported as “A (A binding rate of 80% or more is rated “A”)”.
In the case of `COc1cc2c(ncn2C)c(Cl)c1-c1cccn2c(C(=O)c3cc(F)c(NC(=O)/C=C/CNC(C)(C)C)c(F)c3)ccc12` (single isomer, unassigned) [Example 14-2, (E)-4-(tert-butylamino)-N-(4-(8-(4-chloro-6-methoxy-1-methyl-1H-benzo[d]imidazol-5-yl)indolizine-3-carbonyl)-2,6-difluorophenyl)but-2-enamide], the values for the IC50 in assay [1] and in assay [2] were 42 nM and 56 nM, respectively. In addition, the binding rate result in assay [3] was “A (A binding rate of 80% or more is rated “A”)”.
`COc1c(-c2cccn3c(C(=O)c4cc(F)c(NC(=O)/C=C/CNC5(C)CC5)c(F)c4)cnc23)c(C(F)(F)F)cc2c1nc(C)n2C` (single isomer, unassigned) [Example 105-2, (E)-N-(2,6-difluoro-4-(8-(4-methoxy-1,2-dimethyl-6-(trifluoromethyl)-1H-benzo[d]imidazol-5-yl)imidazo[1,2-a]pyridine-3-carbonyl)phenyl)-4-((1-methylcyclopropyl)amino)but-2-enamide]: the IC50 in assay [1] turned out to be 943 nM; in assay [2] it was 1450 nM. Further, the binding rate result in assay [3] was “C (a binding rate of 40% or more and less than 60% is rated “C”)”.
For the molecule `CO[C@H]1CC[C@H](NC/C=C/C(=O)Nc2c(F)cc(C(=O)c3ccc4c(-c5c(C(F)(F)F)cc6c(nc(C)n6C)c5Cl)cccn34)cc2F)CC1` (single isomer, unassigned) [Example 32-2, (E)-N-(4-(8-(4-chloro-1,2-dimethyl-6-(trifluoromethyl)-1H-benzo[d]imidazol-5-yl)indolizine-3-carbonyl)-2,6-difluorophenyl)-4-(((1r,4r)-4-methoxycyclohexyl)amino)but-2-enamide], the IC50 in assay [1] was found to be 990 nM; in assay [2], 420 nM. The binding rate entry in assay [3] was “A (A binding rate of 80% or more is rated “A”)”.
